The source made the active and inactive calls. The rule behind the calls is not given here.
Molecular target: methionyl-tRNA synthetase (Trypanosoma brucei)
Test: T. brucei MetRS inhibitors, orthogonal readout, late-stage follow-up, orthogonal assay for T. brucei MetRS inhibitor project, biochemical, fluorescence polarization, dose response (AID 686969)

Compound	IC50
O=C(NCc1nc2ccccc2[nH]1)C1=C[C@H](c2ccc(Br)cc2)C[C@H](OCCCCO)O1	3.11 µM
CCO[C@H]1OC(C(=O)NCc2nc3ccccc3[nH]2)=C[C@@H](c2ccc(Br)cc2)[C@@H]1CCCO	9.39 µM
CC(C)(C)[C@H]1C=C(C(=O)NCc2nc3ccccc3[nH]2)O[C@@H](OCc2ccc(CO)cc2)C1	5.39 µM
CCOC(=O)N1CCC(Nc2c(Nc3ccc(F)cc3)c(=O)c2=O)CC1	7.3 µM
O=C(NCc1nc2ccccc2[nH]1)C1=C[C@H](c2csc3ccccc23)C[C@H](OCCCCO)O1	1.79 µM
C[C@H](O)[C@@H]1C(=O)N2CCc3c([nH]c4ccccc34)[C@@H]2C[C@@H]1N(C)Cc1ccc2c(c1)OCO2	0.439 µM
O=C1CC(N(CCc2ccccc2)C(=S)Nc2ccccc2)C(=O)N1c1ccc(Br)cc1 (stereo not drawn)	0.566 µM
O=C(NCc1nc2ccccc2[nH]1)C1=C[C@@H](c2csc3ccccc23)C[C@@H](OCCCCO)O1	4.65 µM
O=C(NCc1nc2ccccc2[nH]1)C1=C[C@@H](c2ccc(Br)cc2)C[C@@H](OCCCCO)O1	1.14 µM
CCO[C@@H]1OC(C(=O)NCc2nc3ccccc3[nH]2)=C[C@H](c2ccc(Br)cc2)[C@H]1CCCO	inactive
CC(C)OCCCN1CC(=O)N2C(c3cccc([N+](=O)[O-])c3)c3[nH]c4ccccc4c3C[C@H]2C1=O (stereo partly drawn)	1.49 µM
O=C(C[C@H]1C(=O)N(Cc2ccccc2)C[C@@H]1c1ccc(Br)cc1)Nc1ccc(Br)cc1	2.97 µM
Brc1cnc2nc(SCc3nc4ccccc4[nH]3)[nH]c2c1	4.27 µM
O=C(NCc1nc2ccccc2[nH]1)C1=C[C@H](C2CC2)C[C@H](OCc2ccc(CO)cc2)O1	8.11 µM
COc1ccc2[nH]c3nc(SCC(=O)Nc4ccc5c(c4)OCO5)nnc3c2c1	0.926 µM
CN(Cc1cc(Cl)cc(Cl)c1)[C@H]1C[C@H]2c3[nH]c4ccccc4c3CCN2C(=O)[C@H]1CO	0.922 µM
O=C(NCc1nc2ccccc2[nH]1)C1=C[C@@H](c2ccc(Br)cc2)C[C@@H](OCc2ccc(CO)cc2)O1	2.03 µM
CC(=O)c1c[nH]c(C(=O)NCc2cccc(C(F)(F)F)c2)c1	2.22 µM
O=C(NCc1nc2ccccc2[nH]1)C1=C[C@@H](c2ccc3c(c2)OCO3)C[C@@H](OCCCCO)O1	2.03 µM
COc1cccc(NC(=O)CSc2nnc3c(n2)[nH]c2ccc(C)cc23)c1	0.0751 µM
O=C(NCc1nc2ccccc2[nH]1)C1=C[C@@H](c2ccccc2)C[C@@H](OCc2ccc(CO)cc2)O1	2.21 µM
O=C(NCc1nc2ccccc2[nH]1)C1=C[C@@H](C2CC2)C[C@@H](OCc2ccc(CO)cc2)O1	2.66 µM
CCCCCCCCCC1NC(C(=O)O)Cc2c1[nH]c1ccccc21 (stereo not drawn)	4.27 µM
O=C(NCc1nc2ccccc2[nH]1)C1=C[C@H](c2ccccc2)C[C@H](OCc2ccc(CO)cc2)O1	inactive
Cc1[nH]c2ccc(Br)cc2c(=O)c1CN1CCCCCC1	inactive
Clc1ccc(-c2nnc(SCc3nc4ccccc4[nH]3)o2)c(Cl)c1	0.933 µM
O=C(NCc1nc2ccccc2[nH]1)C1=C[C@H](c2ccc3c(c2)OCO3)C[C@H](OCCCCO)O1	6.22 µM
CC(C)(C)[C@@H]1C=C(C(=O)NCc2nc3ccccc3[nH]2)O[C@H](OCc2ccc(CO)cc2)C1	8.12 µM
O=C(NCc1nc2ccccc2[nH]1)C1=C[C@H](c2ccc(Br)cc2)C[C@H](OCc2ccc(CO)cc2)O1	3.52 µM
Oc1c(Cl)cc(Cl)cc1CNc1nc2ccccc2[nH]1	1.77 µM

More lines, now with the values ahead:

IC50	Compound
1.49 µM	O=C(NNC(=O)c1cc(-c2ccc(Cl)c(Cl)c2)nc2ccccc12)Nc1ccccc1
2.87 µM	O=C(CC=NOCc1ccc([N+](=O)[O-])cc1)Nc1ccc(Cl)cc1
8.37 µM	O=C(CCC(=O)Nc1cccc([N+](=O)[O-])c1)NN=Cc1cccs1
5.65 µM	O=C(N/C(=C\c1cccnc1)c1nc2ccccc2[nH]1)c1cccc(Br)c1
0.292 µM	O=C(Cn1cc(C(=O)C(=O)N2CCOCC2)c2ccccc21)Nc1cccc(C(F)(F)F)c1
0.933 µM	O=C1[C@@H]2Cc3c([nH]c4ccccc34)C(c3cccc([N+](=O)[O-])c3)N2C(=O)CN1CCCO (stereo partly drawn)
1.91 µM	CN(CC(=O)Nc1ccc(Cl)cc1)C(=O)c1ccc(-n2cncn2)c([N+](=O)[O-])c1
7.41 µM	O=C(NNC(=O)c1ccc(-n2cncn2)c([N+](=O)[O-])c1)c1ccc(Cl)cc1
0.717 µM	CN1CC(=O)N2C(c3cccc([N+](=O)[O-])c3)c3[nH]c4ccccc4c3C[C@H]2C1=O (stereo partly drawn)
6.03 µM	O=C(CC(=O)Nc1cccc(Cl)c1)NN=Cc1ccccc1
4.59 µM	COc1ccccc1-n1c(SCC(=O)Nc2ccc(Cl)cc2)nc(O)c(Cc2ccccc2)c1=O
3.91 µM	O=C(CN1CCSC1=NCc1ccccc1)c1ccc(Cl)c(Cl)c1
inactive	O=C1CC(SCc2nc3ccccc3[nH]2)C(=O)N1c1cccc(Cl)c1 (stereo not drawn)
5.73 µM	Cc1ccc(NC(=O)CN(C)C(=O)CCSc2ccc(F)cc2)cc1
2.81 µM	O=C(Cn1cnc2ccccc21)Nc1cccc([N+](=O)[O-])c1
2.36 µM	CC(CC(=O)Nc1cccc(Br)c1)=NNC(=O)c1ccc(O)cc1O
1.31 µM	O=C(CC=NOCc1ccc([N+](=O)[O-])cc1)Nc1ccc(Br)cc1
0.331 µM	O=C(NCCc1nc2ccccc2[nH]1)c1ccc(Cl)c([N+](=O)[O-])c1
0.879 µM	CC(=O)c1ccc(N2CCN(C(=O)CCCn3c(=O)[nH]c4ccc(Br)cc4c3=O)CC2)cc1
7.55 µM	COc1ccc(OCC(O)CNC(=O)Nc2ccc(Cl)cc2)cc1 (stereo not drawn)
0.6 µM	COc1ccccc1NS(=O)(=O)c1cccc(NC(=O)Nc2ccccc2)c1
2.91 µM	O=C(Nc1ccc(F)c(Cl)c1)C1CC(=O)n2c(nc3ccccc32)N1 (stereo not drawn)
9.23 µM	Clc1ccc(OCCSCc2nc3ccccc3[nH]2)cc1
